Source: ChEMBL document CHEMBL4196088, “Induction of cell killing and autophagy by amphiphilic pyrrolidine derivatives on human pancreatic cancer cells” (Eur J Med Chem, 2018)

Tests used:
HeLa = experiment: Growth inhibition of human HeLa cells after 72 hrs; type: functional, cell-based
BXPC-3 = experiment: Growth inhibition of human BxPC3 cells after 72 hrs by XTT assay; type: functional, cell-based; conditions: BXPC-3, 72 h
PANC-1 [1] = experiment: Growth inhibition of human PANC1 cells after 72 hrs by XTT assay; type: functional, cell-based; conditions: PANC-1, 72 h
MIA PaCa-2 = experiment: Growth inhibition of human MIAPaCa2 cells after 72 hrs by MTT assay; type: functional, cell-based; conditions: MIA PaCa-2, 72 h
PK9 = experiment: Growth inhibition of human PK9 cells after 72 hrs by MTT assay; type: functional, cell-based; conditions: PK9, 72 h
PANC-1 [2] = experiment: Induction of apoptosis in human PANC1 cells assessed as accumulation at sub-G0/G1 phase at 20 uM after 24 hrs by propidium iodide staining based flow cytometry (reference value: 0.6 to 0.7%); type: functional
PANC-1 [3] = experiment: Induction of apoptosis in human PANC1 cells assessed as accumulation at sub-G0/G1 phase at 20 uM after 48 hrs by propidium iodide staining based flow cytometry (reference value: 0.2 to 2.9%); type: functional
PANC-1 [4] = experiment: Induction of apoptosis in human PANC1 cells assessed as accumulation at sub-G0/G1 phase at 20 uM after 72 hrs by propidium iodide staining based flow cytometry (reference value: 1.6 to 3.2%); type: functional
PANC-1 [5] = experiment: Induction of apoptosis in human PANC1 cells assessed as accumulation at sub-G0/G1 phase at 10 uM after 24 hrs by propidium iodide staining based flow cytometry (reference value: 0.6 to 0.7%); type: functional
PANC-1 [6] = experiment: Induction of apoptosis in human PANC1 cells assessed as accumulation at sub-G0/G1 phase at 10 uM after 48 hrs by propidium iodide staining based flow cytometry (reference value: 0.2 to 2.9%); type: functional
PANC-1 [7] = experiment: Induction of apoptosis in human PANC1 cells assessed as accumulation at sub-G0/G1 phase at 10 uM after 72 hrs by propidium iodide staining based flow cytometry (reference value: 1.6 to 3.2%); type: functional

CC(C)(C)OC(=O)N1C[C@H](O)C[C@H]1COCCCCCCCC/C=C/c1ccc(Oc2ccccc2)cc1
IC50 (HeLa): 41 µM

C=CCCCCCCOC[C@@H]1C[C@@H](O)CN1
IC50 (HeLa): > 100 µM

C=CCCCCCCCCCOC[C@@H]1CCCN1
IC50 (BXPC-3): 6.3 µM | IC50 (PANC-1 [1]): 50 µM | IC50 (MIA PaCa-2): 17.1 µM | IC50 (PK9): 18.9 µM

CC(=O)N1CCC[C@H]1COCCCCCC/C=C/c1ccc(-c2ccccc2)cc1
IC50 (BXPC-3): 50 µM | IC50 (PANC-1 [1]): 65 µM

Cc1ccc([S+]([O-])N2CCC[C@H]2COCCCCCCCCC/C=C/c2ccc(-c3ccccc3)cc2)cc1 (some centres undefined)
IC50 (BXPC-3): > 100 µM | IC50 (PANC-1 [1]): > 100 µM

CC(C)(C)OC(=O)N1CCC[C@H]1COCCCCCCCC/C=C/c1ccc(Oc2ccccc2)cc1
IC50 (BXPC-3): > 100 µM | IC50 (PANC-1 [1]): 90 µM | IC50 (MIA PaCa-2): > 100 µM | IC50 (PK9): > 100 µM

CC(C)(C)OC(=O)N1CCC[C@H]1COCCCCCCCCC/C=C/c1ccc(-c2ccccc2)cc1
IC50 (BXPC-3): 60 µM | IC50 (PANC-1 [1]): 80 µM | IC50 (MIA PaCa-2): 57.4 µM | IC50 (PK9): > 100 µM

C=CCCCCCCOC[C@@H]1CCCN1[S+]([O-])c1ccc(C)cc1 (some centres undefined)
IC50 (BXPC-3): 50 µM | IC50 (PANC-1 [1]): 53.3 µM

O=CN1CCC[C@H]1COCCCCCC/C=C/c1ccc(-c2ccccc2)cc1
IC50 (BXPC-3): 53.3 µM | IC50 (PANC-1 [1]): 50 µM

CC(C)(C)OC(=O)N1CCC[C@H]1COCCCCCC/C=C/c1ccc(Oc2ccccc2)cc1
IC50 (BXPC-3): 63.3 µM | IC50 (PANC-1 [1]): 63.3 µM | IC50 (MIA PaCa-2): 8.5 µM | IC50 (PK9): 69.5 µM

CCCCCCCC/C=C/CCCCCCCCOC[C@@H]1C[C@@H](O)CN1
IC50 (HeLa): 4 µM

O=CN1CCC[C@H]1COCCCCCC/C=C/c1ccc(Oc2ccccc2)cc1
IC50 (BXPC-3): 46.7 µM | IC50 (PANC-1 [1]): 53.3 µM

CC(=O)N1CCC[C@H]1COCCCCCCCCC/C=C/c1ccc(-c2ccccc2)cc1
IC50 (BXPC-3): 56.7 µM | IC50 (PANC-1 [1]): 70 µM

CC(C)(C)OC(=O)N1C[C@H](O)C[C@H]1COCCCCCC/C=C/c1ccc(Oc2ccccc2)cc1
IC50 (HeLa): 41 µM

CCCCCCCC/C=C\CCCCCCCCOC[C@@H]1C[C@@H](O)CN1C(=O)OC(C)(C)C
IC50 (HeLa): 40 µM

Cc1ccc([S+]([O-])N2CCC[C@H]2COCCCCCC/C=C/c2ccc(Oc3ccccc3)cc2)cc1 (some centres undefined)
IC50 (BXPC-3): 50 µM | IC50 (PANC-1 [1]): 60 µM

C(=C\c1ccc(-c2ccccc2)cc1)/CCCCCCCCCOC[C@@H]1CCCN1.Cl
IC50 (BXPC-3): 7 µM | IC50 (PANC-1 [1]): 7.3 µM | IC50 (MIA PaCa-2): 8.3 µM | IC50 (PK9): 5.5 µM | Activity (PANC-1 [2]): 7% | Activity (PANC-1 [3]): 2.2% | Activity (PANC-1 [4]): 11.6% | Activity (PANC-1 [5]): 1.6% | Activity (PANC-1 [6]): 1.9% | Activity (PANC-1 [7]): 8.4%

C=CCCCCCCCCCOC[C@@H]1C[C@@H](O)CN1
IC50 (HeLa): 39 µM

O[C@H]1CN[C@H](COCCCCCCCC/C=C/c2ccc(-c3ccccc3)cc2)C1
IC50 (HeLa): 3.9 µM

CCCCCCCC/C=C\CCCCCCCCOC[C@@H]1C[C@@H](O)CN1
IC50 (HeLa): 3.9 µM

CC(C)(C)OC(=O)N1CCC[C@H]1COCCCCCCCCC/C=C/c1ccc(Oc2ccccc2)cc1
IC50 (PANC-1 [1]): > 100 µM | IC50 (MIA PaCa-2): 59.6 µM | IC50 (PK9): > 100 µM

C(=C\c1ccc(Oc2ccccc2)cc1)/CCCCCCCCOC[C@@H]1CCCN1
IC50 (BXPC-3): 43.3 µM | IC50 (PANC-1 [1]): 50 µM | IC50 (MIA PaCa-2): 18.3 µM | IC50 (PK9): 20.8 µM

CC(=O)N1CCC[C@H]1COCCCCCCCCC/C=C/c1ccc(Oc2ccccc2)cc1
IC50 (BXPC-3): 73.3 µM | IC50 (PANC-1 [1]): 65 µM

C=CCCCCCCCCCOC[C@@H]1CCCN1[S+]([O-])c1ccc(C)cc1 (some centres undefined)
IC50 (BXPC-3): 50 µM | IC50 (PANC-1 [1]): 56.7 µM

CCCCCCCC/C=C\CCCCCCCCOC[C@@H]1CCCN1C(=O)[C@@H]1CCCN1C(=O)OC(C)(C)C
IC50 (BXPC-3): > 100 µM | IC50 (PANC-1 [1]): > 100 µM

CC(C)(C)OC(=O)NCC(=O)N1CCC[C@H]1COCCCCCC/C=C/c1ccc(Oc2ccccc2)cc1
IC50 (BXPC-3): 80 µM | IC50 (PANC-1 [1]): 63.3 µM

CC(C)(C)OC(=O)N1C[C@H](O)C[C@H]1COCCCCCCCCC/C=C/c1ccc(-c2ccccc2)cc1
IC50 (HeLa): 36.5 µM

CC(C)(C)OC(=O)N1C[C@H](O)C[C@H]1COCCCCCC/C=C/c1ccc(-c2ccccc2)cc1
IC50 (HeLa): 38.5 µM

Cc1ccc([S+]([O-])N2CCC[C@H]2COCCCCCCCCC/C=C/c2ccc(Oc3ccccc3)cc2)cc1 (some centres undefined)
IC50 (PANC-1 [1]): > 100 µM

C=CCCCCCCCCCOC[C@@H]1CCCN1C(=O)OC(C)(C)C
IC50 (BXPC-3): 50 µM | IC50 (PANC-1 [1]): ≥ 100 µM | IC50 (MIA PaCa-2): 50.3 µM | IC50 (PK9): > 100 µM

CC(=O)N1CCC[C@H]1COCCCCCC/C=C/c1ccc(Oc2ccccc2)cc1
IC50 (BXPC-3): 60 µM | IC50 (PANC-1 [1]): 40 µM

C=CCCCCCCOC[C@@H]1C[C@@H](O)CN1C(=O)OC(C)(C)C
IC50 (HeLa): 23 µM

O=CN1CCC[C@H]1COCCCCCCCCC/C=C/c1ccc(-c2ccccc2)cc1
IC50 (BXPC-3): 66.7 µM | IC50 (PANC-1 [1]): 56.7 µM

C=CCCCCCCOC[C@@H]1CCCN1C(=O)OC(C)(C)C
IC50 (BXPC-3): 53.3 µM | IC50 (PANC-1 [1]): 56.7 µM | IC50 (MIA PaCa-2): 47.1 µM | IC50 (PK9): 57.1 µM

Cc1ccc([S+]([O-])N2CCC[C@H]2COCCCCCC/C=C/c2ccc(-c3ccccc3)cc2)cc1 (some centres undefined)
IC50 (BXPC-3): ≥ 100 µM | IC50 (PANC-1 [1]): ≥ 100 µM

CC(C)(C)OC(=O)N1CCC[C@H]1COCCCCCCCC/C=C/c1ccc(-c2ccccc2)cc1
IC50 (BXPC-3): 70 µM | IC50 (PANC-1 [1]): 90 µM | IC50 (MIA PaCa-2): 69.2 µM | IC50 (PK9): > 100 µM

O[C@H]1CN[C@H](COCCCCCC/C=C/c2ccc(Oc3ccccc3)cc2)C1
IC50 (HeLa): 5.1 µM

C(=C\c1ccc(Oc2ccccc2)cc1)/CCCCCCOC[C@@H]1CCCN1
IC50 (BXPC-3): 49.7 µM | IC50 (PANC-1 [1]): 30 µM | IC50 (MIA PaCa-2): 7.4 µM | IC50 (PK9): 11.4 µM

CC(C)(C)OC(=O)NCC(=O)N1CCC[C@H]1COCCCCCC/C=C/c1ccc(-c2ccccc2)cc1
IC50 (BXPC-3): 66.7 µM | IC50 (PANC-1 [1]): 66.7 µM

CC(C)(C)OC(=O)NCC(=O)N1CCC[C@H]1COCCCCCCCCC/C=C\c1ccc(Oc2ccccc2)cc1
IC50 (BXPC-3): > 100 µM | IC50 (PANC-1 [1]): > 100 µM

CCCCCCCC/C=C/CCCCCCCCOC[C@@H]1C[C@@H](O)CN1C(=O)OC(C)(C)C
IC50 (HeLa): 29.5 µM

CCCCCCCC/C=C\CCCCCCCCOC[C@@H]1CCCN1[S+]([O-])c1ccc(C)cc1 (some centres undefined)
IC50 (BXPC-3): > 100 µM | IC50 (PANC-1 [1]): > 100 µM

CC(C)(C)OC(=O)N1C[C@H](O)C[C@H]1COCCCCCCCCC/C=C/c1ccc(Oc2ccccc2)cc1
IC50 (HeLa): 45.9 µM

CCCCCCCC/C=C/CCCCCCCCOC[C@@H]1CCCN1C(=O)OC(C)(C)C
IC50 (BXPC-3): > 100 µM | IC50 (PANC-1 [1]): > 100 µM | IC50 (MIA PaCa-2): > 100 µM | IC50 (PK9): > 100 µM

C(=C\c1ccc(Oc2ccccc2)cc1)/CCCCCCCCCOC[C@@H]1CCCN1
IC50 (BXPC-3): 56.7 µM | IC50 (PANC-1 [1]): 60 µM | IC50 (MIA PaCa-2): 19.3 µM | IC50 (PK9): 20.7 µM

CC(C)(C)OC(=O)NCC(=O)N1CCC[C@H]1COCCCCCCCCC/C=C/c1ccc(-c2ccccc2)cc1
IC50 (BXPC-3): > 100 µM | IC50 (PANC-1 [1]): > 100 µM

C=CCCCCCCOC[C@@H]1CCCN1
IC50 (BXPC-3): > 100 µM | IC50 (PANC-1 [1]): > 100 µM | IC50 (MIA PaCa-2): 72.9 µM | IC50 (PK9): 57.7 µM

C=CCCCCCCCCCOC[C@@H]1C[C@@H](O)CN1C(=O)OC(C)(C)C
IC50 (HeLa): 39 µM

CC(C)(C)OC(=O)N1CCC[C@H]1COCCCCCC/C=C/c1ccc(-c2ccccc2)cc1
IC50 (BXPC-3): > 100 µM | IC50 (PANC-1 [1]): > 100 µM | IC50 (MIA PaCa-2): 23 µM | IC50 (PK9): > 100 µM

CCCCCCCC/C=C\CCCCCCCCOC[C@@H]1CCCN1C(=O)OC(C)(C)C
IC50 (BXPC-3): > 100 µM | IC50 (PANC-1 [1]): 80 µM | IC50 (MIA PaCa-2): > 100 µM | IC50 (PK9): > 100 µM

O=CN1CCC[C@H]1COCCCCCCCCC/C=C/c1ccc(Oc2ccccc2)cc1
IC50 (BXPC-3): 65 µM | IC50 (PANC-1 [1]): 63.3 µM

CC(C)(C)OC(=O)N1C[C@H](O)C[C@H]1COCCCCCCCC/C=C/c1ccc(-c2ccccc2)cc1
IC50 (HeLa): 37.5 µM
